This test addresses human plasma kallikrein (Homo sapiens, UniProt P03952). In words: Kallikrein inhibition FLINT assay with quenched AMC peptide substrate Z-Gly-Pro-Arg-AMC (end point EP or kinetic KIN reads). In kind it is biochemical. Particulars: kinetic reads at 5 min intervals over 30 min; read-out: Kallikrein (KIN) IC50. In a few lines:
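Enzyme and compound were preincubated 30 min before adding 50 μM AMC substrate in pH 7.5 Tris/NaCl/CaCl2/BSA/CHAPS buffer. AMC release was read at 30 min endpoint or every 5 min.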
human plasma kallikrein, sequence (P03952 391-638 limits assumed): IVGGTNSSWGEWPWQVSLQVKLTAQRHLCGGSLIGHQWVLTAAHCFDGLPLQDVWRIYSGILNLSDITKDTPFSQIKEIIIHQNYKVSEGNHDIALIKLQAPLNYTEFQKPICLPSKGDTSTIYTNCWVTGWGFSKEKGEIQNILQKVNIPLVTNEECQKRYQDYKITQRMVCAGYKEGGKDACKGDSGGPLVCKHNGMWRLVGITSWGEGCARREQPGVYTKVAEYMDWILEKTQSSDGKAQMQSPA
human plasma kallikrein, sequence (P03952 20-390 partner limits assumed): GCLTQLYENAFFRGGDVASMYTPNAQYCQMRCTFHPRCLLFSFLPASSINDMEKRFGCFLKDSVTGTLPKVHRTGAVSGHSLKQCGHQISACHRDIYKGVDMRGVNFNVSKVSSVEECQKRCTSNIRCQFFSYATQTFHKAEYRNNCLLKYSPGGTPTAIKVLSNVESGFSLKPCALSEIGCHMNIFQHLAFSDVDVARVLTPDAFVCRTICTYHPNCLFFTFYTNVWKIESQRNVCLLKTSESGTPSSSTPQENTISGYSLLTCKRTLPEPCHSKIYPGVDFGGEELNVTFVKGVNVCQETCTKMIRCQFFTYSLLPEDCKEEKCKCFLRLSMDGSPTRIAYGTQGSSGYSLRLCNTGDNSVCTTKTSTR
One may read the IC50 as the point on the concentration scale where inhibition reaches its midpoint. As for `O=C(O)c1ccc(-c2cnn(C(CN3CCCC3=O)c3ccc(-c4cc(Cl)ccc4-n4cnnn4)c[n+]3[O-])c2)cc1` (stereo not shown) [Example P163], the IC50 turned out to be 0.0269 µM. `O=C(NC1CC1)c1ccc(-c2cnn(C(Cc3ccc(F)cc3)c3ccc(-c4cc(Cl)ccc4-n4cnnn4)c[n+]3[O-])c2)cc1` (stereo not shown) [Example P55]: the IC50 amounted to 0.0054 µM. As to `COC(=O)Nc1ccc(-c2cnn(C(Cc3ccn(C)n3)c3ccc(-c4c(-n5cnnn5)ccc(Cl)c4F)c[n+]3[O-])c2)cc1` (single isomer, unassigned) [Example P330], the IC50 amounted to 0.0033 µM. Turning to `COC(=O)Nc1ccc(-c2cnn(C(Cc3ccccc3)c3ccc(-c4c(-n5cnnn5)ccc(Cl)c4F)c[n+]3[O-])c2)cc1` (stereo not shown) [Example P71], the concentration for half-maximal inhibition (IC50) was 0.0075 µM. Consider `Cn1nncc1-c1cnn([C@H](Cc2ccc(F)cc2)c2ccc(-c3c(-n4cc(OC(F)F)nn4)ccc(Cl)c3F)c[n+]2[O-])c1` [Example P635], for which the IC50 was found to be 0.0034 µM.

Turning to `COc1cc(C(CC2CC2)n2cc(-c3ncnn3C(F)F)cn2)[n+]([O-])cc1-c1cc(Cl)ccc1-n1cc(C(F)(F)F)nn1` (single isomer, unassigned) [Example P940], the IC50 was 0.0142 µM. With `CN1CCN(CC(c2ccc(-c3c(-n4cnnn4)ccc(Cl)c3F)c[n+]2[O-])n2cc(-c3ccnc(C(F)(F)F)c3)cn2)C1=O` (single isomer, unassigned) [Example P433], the IC50 came to 0.105 µM. Consider `O=C(O)c1ccc(-c2cnn(C(CC(=O)N3CCCC3)c3ccc(-c4c(-n5cc(C(F)(F)F)nn5)ccc(Cl)c4F)c[n+]3[O-])c2)cc1F` (stereo not shown) [Example P901], for which the concentration for half-maximal inhibition (IC50) is 0.287 µM. The same measure for `COC(=O)Nc1ccc(-c2cnn(C(CC3CC3)c3cc(OC)c(-c4c(-n5cnnn5)ccc(Cl)c4F)c[n+]3[O-])c2)cc1` (stereo not shown) [Example P93]: 0.0045 µM. As for `[O-][n+]1cc(-c2c(-n3cnnn3)ccc(Cl)c2F)ccc1C(C(O)c1ccccc1)n1cc(-c2ccnn2C(F)F)cn1` (single isomer, unassigned) [Example P719], the IC50 was determined as 0.516 µM. On to `[O-][n+]1cc(-c2c(-n3cnnn3)ccc(Cl)c2F)ccc1[C@@H](Cc1ccc(F)cc1)n1cc(-c2cnnn2C(F)F)cn1` [Example P599], for which the concentration for half-maximal inhibition (IC50) stood at 0.004 µM. With `COCCOC(=O)Nc1ccc(-c2cnn(C(CC3CC3)c3ccc(-c4c(-n5cnnn5)ccc(Cl)c4F)c[n+]3[O-])c2)cc1` (stereo not shown) [Example P141], the IC50 was 0.0728 µM. Consider `CCC(c1ccc(-c2c(-n3cnnn3)ccc(Cl)c2F)c[n+]1[O-])n1cc(-c2ccc(NC(=O)OC)cc2)cn1` (stereo not shown) [Example P153], for which the IC50 was 0.108 µM. The result for `O=C(O)c1ccc(-c2cnn(C(CC3CC3C(=O)N3CCC(c4ccccc4)C3)c3ccc(-c4cc(Cl)ccc4-n4cnnn4)c[n+]3[O-])c2)cc1` (single isomer, unassigned) [Example P101] reads 0.625 µM; that for `CCOCCC(c1ccc(-c2c(-n3cnnn3)ccc(Cl)c2F)c[n+]1[O-])n1cc(-c2ccc(NC(=O)OC)cc2)cn1` (stereo not shown) [Example P204], 0.0451 µM; that for `NC(=O)c1ccc(-c2cnn(C(CCOC(F)F)c3ccc(-c4c(-n5cnnn5)ccc(Cl)c4F)c[n+]3[O-])c2)cc1F` (single isomer, unassigned) [Example P928], 0.0009 µM. In the case of `Cn1ncc(-c2cnn(C(CC3CC3)c3cc(Cl)c(-c4c(-n5cnnn5)ccc(Cl)c4F)c[n+]3[O-])c2)cc1=O` (single isomer, unassigned) [Example P190], the 50% inhibitory concentration (IC50) stood at 0.0492 µM. As to `O=C(C1CC1CC(c1ccc(-c2c(-n3cnnn3)ccc(Cl)c2F)c[n+]1[O-])n1cc(-c2ccncc2)cn1)N1CCCCC1` (stereo not shown) [Example P252], the IC50 was found to be 0.617 µM. On to `COC(=O)Nc1ccc(-c2cnn(C(CC3CCCCO3)c3ccc(-c4c(-n5cnnn5)ccc(Cl)c4F)c[n+]3[O-])c2)cc1` (single isomer, unassigned) [Example P115], for which the IC50 came to 0.0291 µM. On to `N#Cc1cc(-c2cnn(C(CC3CC3)c3ccc(-c4c(-n5cnnn5)ccc(Cl)c4F)c[n+]3[O-])c2)ccn1` (stereo not shown) [Example P294], for which the IC50 was 0.212 µM. The result for `COc1cc(C(CC2CC2)n2cc(-c3c(F)nnn3C)cn2)[n+]([O-])cc1-c1cc(Cl)ccc1C#N` (single isomer, unassigned) [Example Q62] reads 0.0809 µM. In the case of `O=C(O)c1ccc(-c2cnn(C(CC3CC3c3ccc(-c4ccccc4)cc3)c3ccc(-c4cc(Cl)ccc4-n4cnnn4)c[n+]3[O-])c2)cc1` (stereo not shown) [Example P61], the half-maximal inhibitory concentration (IC50) was found to be 0.0519 µM. The result for `NC(=O)Cc1ccn(CC(c2ccc(-c3c(-n4cnnn4)ccc(Cl)c3F)c[n+]2[O-])n2cc(-c3ccnc(C(F)(F)F)c3)cn2)n1` (stereo not shown) [Example P486] reads 0.0102 µM; that for `Cn1ncnc1-c1cnn(C(CCOC(F)F)c2ccc(-c3c(N)ccc(Cl)c3F)c[n+]2[O-])c1` (stereo not shown) [Example Q45], 0.231 µM; that for `COC(=O)Nc1ccc(-c2cnn(C(Cn3cc(F)cn3)c3ccc(-c4c(-n5cnnn5)ccc(Cl)c4F)c[n+]3[O-])c2)cc1` (stereo not shown) [Example P277], 0.0133 µM. Take `O=C(O)c1ccc(-c2cnn([C@H](CCOC(F)F)c3ccc(-c4c(C(F)F)ccc(Cl)c4F)c[n+]3[O-])c2)cc1` [Example Q35]: the IC50 was determined as 0.004 µM. As for `CC1(C(=O)NCC(c2ccc(-c3cc(Cl)ccc3-n3cnnn3)c[n+]2[O-])n2cc(-c3ccnc(F)c3)cn2)CC1` (stereo not shown) [Example P347], the concentration for half-maximal inhibition (IC50) was 0.806 µM.

Take `[O-][n+]1cc(-c2cc(Cl)ccc2-n2cnnn2)ccc1C(Cc1ccc(Cl)cc1)n1cc(-c2ccnc(C(F)(F)F)c2)cn1` (stereo not shown) [Example P250]: the IC50 was found to be 0.0459 µM. Turning to `[O-][n+]1cc(-c2c(-n3cnnn3)ccc(Cl)c2F)ccc1C(Cn1ccc(C(F)(F)F)n1)n1cc(-c2ccnc(F)c2)cn1` (stereo not shown) [Example P357], the IC50 was determined as 0.0237 µM. Take `O=C(c1cnn(CC(c2ccc(-c3c(-n4cnnn4)ccc(Cl)c3F)c[n+]2[O-])n2cc(-c3cc[n+]([O-])cc3)cn2)c1)N1CCCCC1` (stereo not shown) [Example P292]: the half-maximal inhibitory concentration (IC50) came out at 0.0513 µM. As for `[2H]C([2H])([2H])OCCC(c1ccc(-c2c(-n3cnnn3)ccc(Cl)c2F)c[n+]1[O-])n1cc(-c2ccnc(C(F)(F)F)c2)cn1` (single isomer, unassigned) [Example P386], the half-maximal inhibitory concentration (IC50) worked out at 0.0398 µM.

Turning to `COCC[C@@H](c1ccc(-c2c(-n3cnnn3)ccc(Cl)c2F)c[n+]1[O-])n1cc(-c2cc(C(F)(F)F)nn2C)cn1` [Example P620], the half-inhibitory concentration (IC50) is 5.29 µM. Consider `N#Cc1cc(-c2cnn(C(Cn3cc(F)cn3)c3ccc(-c4c(-n5cnnn5)ccc(Cl)c4F)c[n+]3[O-])c2)ccn1` (single isomer, unassigned) [Example P454], for which the IC50 came out at 0.0126 µM. As for `CC(=O)N(C)CC(c1ccc(-c2c(-n3cnnn3)ccc(Cl)c2F)c[n+]1[O-])n1cc(-c2ccnc(C(F)(F)F)c2)cn1` (single isomer, unassigned) [Example P404], the IC50 turned out to be 0.0684 µM. The result for `[O-][n+]1cc(-c2c(-n3cnnn3)ccc(Cl)c2F)ccc1C(CC1CC1)n1cc(-c2ccc3c(c2)OCCO3)cn1` (stereo not shown) [Example P271] reads 0.252 µM; that for `[O-][n+]1cc(-c2c(-n3cnnn3)ccc(Cl)c2F)ccc1[C@@H](CCOC(F)F)n1cc(-c2scnc2C(F)(F)F)cn1` [Example P580], 0.0135 µM.

For `NC(=O)c1ccnn1CC(c1ccc(-c2c(C(F)F)ccc(Cl)c2F)c[n+]1[O-])n1cc(-c2ccnc(C(F)(F)F)c2)cn1` (single isomer, unassigned) [Example Q27], the IC50 was determined as 0.0047 µM.

As to `O=C1CCC(c2ccc(-c3cnn(C(Cc4ccc(F)cc4)c4ccc(-c5c(-n6cnnn6)ccc(Cl)c5F)c[n+]4[O-])c3)cc2)N1` (stereo not shown) [Example P121], the concentration for half-maximal inhibition (IC50) was found to be 0.0113 µM.

As to `O=C(O)c1ccc(-c2cnn([C@H](CCOC(F)F)c3ccc(-c4c(-n5cc(C(F)(F)F)nn5)ccc(Cl)c4F)c[n+]3[O-])c2)cc1` [Example P858], the concentration for half-maximal inhibition (IC50) turned out to be 0.0116 µM. Regarding `COc1cc(C(CC2CC2)n2cc(-c3ccc(N)nc3F)cn2)[n+]([O-])cc1-c1c(-n2cnnn2)ccc(Cl)c1F` (stereo not shown) [Example P85], the IC50 was 0.0041 µM. The result for `NC(=O)C1CC1CC(c1ccc(-c2c(-n3cnnn3)ccc(Cl)c2F)c[n+]1[O-])n1cc(-c2ccc(N)nc2F)cn1` (single isomer, unassigned) [Example P338] reads 0.0745 µM; that for `Cc1cc(-c2cnn(C(Cn3cc(F)cn3)c3ccc(-c4c(-n5cnnn5)ccc(Cl)c4F)c[n+]3[O-])c2)ccn1` (stereo not shown) [Example P474], 0.0132 µM. Take `Cn1nncc1-c1cnn([C@H](Cc2ccc(C(F)(F)F)nc2)c2ccc(-c3c(-n4cc(Cl)nn4)ccc(Cl)c3F)c[n+]2[O-])c1` [Example P772]: the IC50 came to 0.0423 µM.

As for `Cc1cc(-c2cnn(C(Cn3cccn3)c3ccc(-c4c(-n5cnnn5)ccc(Cl)c4F)c[n+]3[O-])c2)ccn1` (stereo not shown) [Example P285], the IC50 turned out to be 0.0162 µM. The same measure for `[O-][n+]1cc(-c2c(-n3cnnn3)ccc(Cl)c2F)ccc1[C@@H](CCOC(F)F)n1cc(-c2nn(C(F)F)cc2Cl)cn1` [Example P572]: 0.0241 µM. For `COCc1ccn(CC(c2ccc(-c3c(-n4cnnn4)ccc(Cl)c3F)c[n+]2[O-])n2cc(-c3ccc(N)nc3F)cn2)n1` (stereo not shown) [Example P492], the half-maximal inhibitory concentration (IC50) stood at 0.0028 µM. Take `O=C(O)c1ccc(-c2cnn(C(Cc3ccc(Oc4ccccc4)cc3)c3ccc(-c4cc(Cl)ccc4-n4cnnn4)c[n+]3[O-])c2)cc1` (stereo not shown) [Example P147]: the half-inhibitory concentration (IC50) came out at 0.0122 µM. Regarding `Cn1ncc2cc(-c3cnn(C(CC4CC4)c4ccc(-c5c(-n6cnnn6)ccc(Cl)c5F)c[n+]4[O-])c3)ccc21` (stereo not shown) [Example P265], the IC50 stood at 0.0881 µM. The result for `[O-][n+]1cc(-c2c(-n3cnnn3)ccc(Cl)c2F)ccc1C(CC1CC1)n1cc(-c2ccn[nH]2)cn1` (stereo not shown) [Example P467] reads 0.78 µM.

In the case of `NC(=O)c1ccc(-c2cnn(C(Cc3ncon3)c3ccc(-c4c(-n5cc(C(F)(F)F)nn5)ccc(Cl)c4F)c[n+]3[O-])c2)cc1F` (stereo not shown) [Example P915], the IC50 is 0.0202 µM.

For `O=C(O)c1cc(-c2cnn(C(CC3CC3)c3ccc(-c4c(C(F)F)ccc(Cl)c4F)c[n+]3[O-])c2)c[nH]1` (stereo not shown) [Example Q24], the IC50 is 0.578 µM. Regarding `O=C(O)c1ccc(-c2cnn(C(CCOC(F)F)c3ccc(-c4c(-n5cc(Cl)nn5)ccc(Cl)c4F)c[n+]3[O-])c2)cc1F` (single isomer, unassigned) [Example P881], the half-maximal inhibitory concentration (IC50) was found to be 0.0073 µM.

For the origin of these results see patent US11814364B2, “Pyridine N-oxide derivatives useful as factor XIa inhibitors” (Janssen Pharmaceutica NV, priority 2021, dated 2023).
